Results on 26 compounds are retold here after US20240208912A1 (Mirati Therapeutics, Inc., priority 2021, published 2024).

For orientation: pIC50 means the negative decadic logarithm of the IC50, by convention in mol/L.

pIC50: −log10 of the molar value.

T1 sequence (O14744 2-637 limits assumed): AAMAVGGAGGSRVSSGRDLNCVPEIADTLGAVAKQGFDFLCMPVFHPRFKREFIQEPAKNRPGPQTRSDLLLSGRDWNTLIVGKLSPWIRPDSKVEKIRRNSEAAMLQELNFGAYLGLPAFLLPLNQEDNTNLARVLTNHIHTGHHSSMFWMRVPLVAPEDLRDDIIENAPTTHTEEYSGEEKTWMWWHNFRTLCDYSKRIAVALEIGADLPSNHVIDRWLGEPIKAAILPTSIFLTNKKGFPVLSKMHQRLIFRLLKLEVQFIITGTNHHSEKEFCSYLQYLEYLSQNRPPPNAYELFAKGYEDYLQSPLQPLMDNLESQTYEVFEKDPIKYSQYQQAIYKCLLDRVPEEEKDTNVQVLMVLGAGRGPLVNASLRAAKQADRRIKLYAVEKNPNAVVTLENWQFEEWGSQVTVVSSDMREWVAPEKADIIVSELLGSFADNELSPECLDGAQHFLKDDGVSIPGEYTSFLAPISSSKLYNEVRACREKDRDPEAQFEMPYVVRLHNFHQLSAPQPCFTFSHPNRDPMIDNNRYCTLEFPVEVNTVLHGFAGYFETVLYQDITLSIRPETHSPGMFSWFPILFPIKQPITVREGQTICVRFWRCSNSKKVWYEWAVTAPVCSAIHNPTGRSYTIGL
T1 sequence (Q9BQA1 2-342 partner limits assumed): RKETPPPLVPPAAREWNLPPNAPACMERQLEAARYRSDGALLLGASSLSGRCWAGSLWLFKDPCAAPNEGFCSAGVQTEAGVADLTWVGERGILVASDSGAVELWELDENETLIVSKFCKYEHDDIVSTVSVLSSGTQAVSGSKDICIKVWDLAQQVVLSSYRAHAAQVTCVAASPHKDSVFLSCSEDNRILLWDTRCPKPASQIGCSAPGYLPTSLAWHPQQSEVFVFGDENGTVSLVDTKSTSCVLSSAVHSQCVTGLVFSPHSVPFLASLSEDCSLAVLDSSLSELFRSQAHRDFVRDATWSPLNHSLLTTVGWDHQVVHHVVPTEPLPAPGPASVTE

One experiment has as its target T1, PRMT5/MEP50 complex (Homo sapiens, UniProt O14744).
T1 construct: purchased Reaction Biology Corporation
Nature of the experiment: PRMT5:MEP50 HotSpot Assay (full-length histone H2A substrate, plus and minus MTA). It is filed as biochemical. The settings on record: IC50 + 2 μM MTA, in the presence of 2 μM MTA. As for the experimental part:
The PRMT5 inhibitory activity of compounds of the present invention was determined using either a PRMT5:MEP50 FlashPlate Assay (Reaction Biology Corporation) or a PRMT5:MEP50 HotSpot Assay (Reaction Biology Corporation).
The assay uses recombinant full-length hi stone H2A as the PRMT5 substrate. […] The reaction was stopped and transferred to filter paper for detection. The amount of tritiated H2A in each sample was determined using a scintillation counter.
Regarding `Cn1ncc(-c2ccc3c(=O)[nH]nc(CN)c3c2)c1-c1c(C(F)F)cc2ccccc2c1C#N` (single isomer, unassigned) [Example 16-130, (M)-2-(4-(4-(aminomethyl)-1-oxo-1,2-dihydrophthalazin-6-yl)-1-methyl-1H-pyrazol-5-yl)-3-(difluoromethyl)-1-naphthonitrile], the pIC50 was 7.04.
Consider `CCOc1cc(-c2cnn(C)c2-c2c(F)c(C)c3ncc(Cl)cc3c2C#N)cc2c(CN)n[nH]c(=O)c12` (single isomer, unassigned) [Example 16-112, (M)-6-(4-(4-(aminomethyl)-8-ethoxy-1-oxo-1,2-dihydrophthalazin-6-yl)-1-methyl-1H-pyrazol-5-yl)-3-chloro-7-fluoro-8-methylquinoline-5-carbonitrile], for which the pIC50 was 7.29.
Regarding `Cn1ncc(-c2ccc3c(=O)[nH]nc(CN)c3c2)c1-c1c(F)c(Cl)cc(CC2CC2)c1C#N` (single isomer, unassigned) [Example 16-126, (M)-2-(4-(4-(aminomethyl)-1-oxo-1,2-dihydrophthalazin-6-yl)-1-methyl-1H-pyrazol-5-yl)-4-chloro-6-(cyclopropylmethyl)-3-fluorobenzonitrile], the pIC50 is 7.54.
In the case of `Cn1ncc(-c2ccc3c(c2)C(C)(N)CNC3=O)c1-c1sc2ccccc2c1C#N` (centres unmarked) [Example 20-7, 2-(4-(4-amino-4-methyl-1-oxo-1,2,3,4-tetrahydroisoquinolin-6-yl)-1-methyl-1H-pyrazol-5-yl)benzo[b]thiophene-3-carbonitrile], the pIC50 is < 5.00.
The same measure, in the same setting: the figure for `C[C@@H](N)c1n[nH]c(=O)c2ccc(-c3cnn(C)c3-c3ccc4ccccc4c3C#N)nc12` [Example 20-1] is 5.90; for `Cn1ncc(-c2ccc3c(=O)[nH]nc(CN)c3c2)c1-c1c(F)cc(S(F)(F)(F)(F)F)cc1C#N` (atropisomer, axis not shown; (M)) [Example 16-134, (M)-2-(4-(4-(aminomethyl)-1-oxo-1,2-dihydrophthalazin-6-yl)-1-methyl-1H-pyrazol-5-yl)-3-fluoro-5-(pentafluoro-16-sulfanyl)benzonitrile] it is 6.02; for `Cn1ncc(-c2ccc3c(=O)[nH]nc(CN)c3c2)c1-c1c(Cl)ccc(OC2CC2)c1C#N` (atropisomer, axis not shown; (M)) [Example 16-132, (M)-2-(4-(4-(aminomethyl)-1-oxo-1,2-dihydrophthalazin-6-yl)-1-methyl-1H-pyrazol-5-yl)-3-chloro-6-cyclopropoxybenzonitrile] it is 6.60.
Regarding `Cn1ncc(-c2ccc3c(=O)[nH]nc(CN)c3c2)c1-c1c(Cl)ccc(OC2CC2)c1C#N` (atropisomer, axis not shown; (P)) [Example 16-131, (P)-2-(4-(4-(aminomethyl)-1-oxo-1,2-dihydrophthalazin-6-yl)-1-methyl-1H-pyrazol-5-yl)-3-chloro-6-cyclopropoxybenzonitrile], the pIC50 is 6.46.
For the compound `Cn1ncc(-c2ccc3c(=O)[nH]nc(CN)c3c2)c1-c1c(C2COC2)ccc2c1COC2` (atropisomer, axis not shown; (P)) [Example 16-137, (P)-4-(aminomethyl)-6-(1-methyl-5-(5-(oxetan-3-yl)-1,3-dihydroisobenzofuran-4-yl)-1H-pyrazol-4-yl)phthalazin-1(2H)-one], the pIC50 is < 5.00.
As to `Cn1ncc(-c2ccc3c(c2)C(CN)NC3=O)c1-c1sc2ccccc2c1C#N` (centres unmarked) [Example 20-4, 2-(4-(3-(aminomethyl)-1-oxoisoindolin-5-yl)-1-methyl-1H-pyrazol-5-yl)benzo[b]thiophene-3-carbonitrile], the pIC50 was 5.99.
Regarding `Cn1ncc(-c2ccc3c(=O)[nH]nc(CN)c3c2)c1-c1ccc2n1C(=O)CCC2` [Example 4-278, 4-(aminomethyl)-6-(1-methyl-5-(5-oxo-5,6,7,8-tetrahydroindolizin-3-yl)-1H-pyrazol-4-yl)phthalazin-1(2H)-one], the pIC50 was 6.00.
Same read-out and setting: the figure for `Cn1ncc(-c2ccc3c(c2)C(CCN)NC3=O)c1-c1sc2ccccc2c1C#N` (centres unmarked) [Example 20-5, 2-[4-[3-(2-aminoethyl)-1-oxo-isoindolin-5-yl]-2-methyl-pyrazol-3-yl]benzothiophene-3-carbonitrile] is 6.20; for `Cn1ncc(-c2ccc3c(=O)[nH]nc(CN)c3c2)c1-c1c(F)cc(S(F)(F)(F)(F)F)cc1C#N` (atropisomer, axis not shown; (P)) [Example 16-133, (P)-2-(4-(4-(aminomethyl)-1-oxo-1,2-dihydrophthalazin-6-yl)-1-methyl-1H-pyrazol-5-yl)-3-fluoro-5-(pentafluoro-16-sulfanyl)benzonitrile] it is 5.97.
As for `COc1nnc(CN)c2cc(-c3cnn(C)c3-c3sc4ccccc4c3C#N)ccc12` [Example 17-6], the pIC50 is 5.12.
On to `Cn1ncc(-c2ccc3c(=O)[nH]nc(CN)c3c2)c1-c1c(C#N)cc2[nH]cnc2c1Cl` (atropisomer, axis not shown; (M)) [Example 16-115, (M)-5-(4-(4-(aminomethyl)-1-oxo-1,2-dihydrophthalazin-6-yl)-1-methyl-1H-pyrazol-5-yl)-4-chloro-1H-benzo[d]imidazole-6-carbonitrile], for which the pIC50 is 5.06.
As to `Cc1cc2ccccc2c(C#N)c1-c1c(-c2ccc3c(=O)[nH]nc(CN)c3c2)cnn1C` (single isomer, unassigned) [Example 12-15A], the pIC50 was 5.62.
Turning to `Cn1ncc(-c2ccc3c(=O)[nH]nc(CN)c3c2)c1-c1c(Cl)cc2ccccc2c1C#N` (single isomer, unassigned) [Example 16-128, (M)-2-(4-(4-(aminomethyl)-1-oxo-1,2-dihydrophthalazin-6-yl)-1-methyl-1H-pyrazol-5-yl)-3-chloro-1-naphthonitrile], the pIC50 was 7.19.

In the next experiment the test system is HCT116 homozygous MTAP knockout cells. As to the kind of experiment: Proliferation assay (CellTiter-Glo, 10 days) in HCT116 homozygous MTAP knockout cells. It is filed as cell-based. The following applies: CellTiter-Glo after 10 days of treatment, read-out: Proliferation IC50 (nM) HCT116 MTAP_KO. Here is the method:
HCT116 cells were genetically engineered to knock out the function of both MTAP alleles using a CRISPR/Cas9 system and an sgRNA targeting the MTAP gene. Following Cas9/MTAP sgRNA transduction, clones were screened to confirm that each allele of the MTAP gene had been inactivated (i.e., homozygous MTAP knock out) creating an MTAP-deficient cell.
Control samples were analyzed in parallel.
Briefly, on Day 0, 250 HCT116 parental or HCT116 homozygous MTAP knockout cell were seeded in 96 well plates in McCoy's 5A supplemented with […] fetal bovine serum and pen/strep and the cells were incubated overnight at 37° C. plus 5% CO2.
The following day, cells were treated with DMSO vehicle control or a dose response of PRMT5 inhibitors and incubated at 37 C plus 5% CO2 for five days. On Day 6, the cells were trypsinized and split 1:10 into new 96-well plates with fresh medium containing the same concentration of PRMT5 inhibitor and incubated for an additional 5 days at 37° C. plus 5% CO^2.
On Day 11, the viability of the cells was measured using a CTG assay kit (CellTiter-Glo; Promega cat.no G7573) in accordance with the manufacturer's instructions. The IC50 values for each compound after 10 days of treatment were calculated using GraphPad PRISM software.
(In general: Cellular ATP, detected with luciferase, serves as a proxy for viable cell number.)
Consider `Cc1c(F)c(-c2c(-c3ccc4c(=O)[nH]nc(CN)c4c3)cnn2C)c(C#N)c2cc(Cl)cnc12` (atropisomer, axis not shown; (M)) [Example 16-34, (M)-6-[4-[4-(aminomethyl)-1-oxo-2H-phthalazin-6-yl]-2-methyl-pyrazol-3-yl]-3-chloro-7-fluoro-8-methyl-quinoline-5-carbonitrile], for which the IC50 came to 20 nM.
For the compound `Cc1c(F)c(-c2c(-c3ccc4c(=O)[nH]nc(CN)c4c3)cnn2C)c(C#N)c2cc(Cl)cnc12` (atropisomer, axis not shown; (P)) [Example 16-33], the IC50 stood at 626 nM.
The same measure, in the same setting: the figure for `Cn1ncc(-c2ccc3c(=O)[nH]nc(CN)c3c2)c1-c1c(C#N)cc2cccnc2c1Cl` (atropisomer, axis not shown; (M)) [Example 16-84, (M)-7-(4-(4-(aminomethyl)-1-oxo-1,2-dihydrophthalazin-6-yl)-1-methyl-1H-pyrazol-5-yl)-8-chloroquinoline-6-carbonitrile] is 123 nM; for `Cn1ncc(-c2ccc3c(=O)[nH]nc(CN)c3c2)c1-c1c(C#N)cc2ncccc2c1Cl` (atropisomer, axis not shown; (P)) [Example 16-85, (P)-6-(4-(4-(aminomethyl)-1-oxo-1,2-dihydrophthalazin-6-yl)-1-methyl-1H-pyrazol-5-yl)-5-chloroquinoline-7-carbonitrile] it is 4380 nM.

The experiment is the same for the next values; noted with them: Homo sapiens, HCT-116, 240 h, CellTiter-Glo after 10 days of treatment, read-out: Proliferation IC50 (nM) HCT116 MTAP_KO.
Take `Cn1ncc(-c2ccc3c(=O)[nH]nc(CN)c3n2)c1-c1sc2ccccc2c1C#N` [Example 17-3, 2-[4-[8-(aminomethyl)-5-oxo-6H-pyrido[2,3-d]pyridazin-2-yl]-2-methyl-pyrazol-3-yl]benzothiophene-3-carbonitrile]: the IC50 amounted to 278 nM.
Consider `Cn1ncc(-c2ccc3c(=O)[nH]nc(CN)c3c2)c1-c1c(F)cc2c(c1C#N)OCO2` (atropisomer, axis not shown; (P)) [Example 16-87, (P)-5-[4-[4-(aminomethyl)-1-oxo-2H-phthalazin-6-yl]-2-methyl-pyrazol-3-yl]-6-fluoro-1,3-benzodioxole-4-carbonitrile], for which the IC50 was found to be 158 nM.
`Cn1ncc(-c2ccc3c(=O)[nH]nc(CN)c3c2)c1-c1cccc2c1COCC2(C)O` (atropisomer, axis not shown; (M)) [Example 16-103, (M)-4-(aminomethyl)-6-(5-(4-hydroxy-4-methylisochroman-8-yl)-1-methyl-1H-pyrazol-4-yl)phthalazin-1(2H)-one]: the IC50 is 4000 nM.
Turning to `Cn1ncc(-c2ccc3c(=O)[nH]nc(CN)c3c2)c1-c1cc(Cl)c2c(c1C#N)OCCC2` [Example 4-261, 7-[4-[4-(aminomethyl)-1-oxo-2H-phthalazin-6-yl]-2-methyl-pyrazol-3-yl]-5-chloro-chromane-8-carbonitrile], the IC50 came out at 81 nM.
Same read-out and setting: the figure for `Cn1ncc(-c2ccc3c(=O)[nH]nc(CN)c3c2)c1-c1sc2cccnc2c1C#N` [Example 4-275, 2-(4-(4-(aminomethyl)-1-oxo-1,2-dihydrophthalazin-6-yl)-1-methyl-1H-pyrazol-5-yl)thieno[3,2-b]pyridine-3-carbonitrile] is 1880 nM.
